Source: patent publication US20100273772A1, “Bisaryl Alkynylamides as Negative Allosteric Modulators of Metabotropic Glutamate Receptor 5 (MGLUR5)” (Wyeth LLC, priority 2009, published 2010)

What was measured:
[1] = biological target: T1, rat mGluR5 receptor (Rattus norvegicus, UniProt P31424); assay: [3H]-MPEP binding HEK-293 cell membranes expressing a rat mGluR5 receptor; settings: displacement of 4 nM [3H]-MPEP, HEK-293 cell membranes expressing rat mGluR5, 60 minute at room temperature; read-out: mGluR5 Ligand Binding DR Ki
T1 construct: expressed in transfected cells; host or cells: HEK-293
Experimental: TITLE: [^3H]-MPEP binding HEK-293 cell membranes expressing a rat mGluR5 receptor. PURPOSE: To identify high affinity compounds at the rat mGluR5 receptor based on their ability to displace the mGluR5 negative allosteric modulator, MPEP.
mGluR5 expressing HEK-293 cells are scraped off the plate, transferred to centrifuge tubes, and washed twice by centrifugation (2000 rpm for 10 min., 4° C.) in buffer (50 mM Tris pH 7.5). The resulting pellets are aliquoted and placed at −80° C. On the day of assay, the cells are thawed on ice, and resuspended in buffer. The binding assay is performed in a 96 well microtiter plate in a total volume of 250 μL. Non-specific binding is determined in the presence of 10 μM MPEP. Binding reaction includes a final radioligand [^3H]-MPEP concentration of 4 nM and 12-25 ug membrane protein per well. Following a 60 minute incubation at room temperature, the reaction is terminated by the addition of ice cold buffer and rapid filtration through a GF/B filter presoaked for 30 minutes in 0.5% PEI. Compounds are initially tested in a single point assay to determine percent inhibition at 10 μM. Subsequently, Ki values are determined for compounds defined to be active.
% inhibition and Ki values generated by GraphPad Prism and Excel Fit. IC50 values are calculated using GraphPad by fitting to a 1 or 2 site-binding model. Ki values are calculated from the apparent IC50 values using the Cheng-Prussof equation:
(§1) where [L]=concentration of free radioligand and Kd=dissociation constant of radioligand for the receptor. TITLE: Identification of metabotropic glutamate receptor 5 antagonists using a stable, sensitive fluorescence-based screening system PURPOSE: The aim of the research presented here was to develop a robust functional assay to measure changes in intracellular calcium, with the goal of identifying potent mGluR5 antagonists.

[2] = biological target: T2, metabotropic glutamate receptor 5 (Rattus norvegicus, UniProt P31424); assay: FLIPR Calcium 3 fluorescence-based functional assay of intracellular calcium, mGluR5 antagonist activity; format: cell-based; settings: inhibition of glutamate (EC90, ~50 uM) stimulated calcium levels, mGluR5 HEK-293 cells; read-out: mGluR5 FLIPR MP Antagonist DR IC50
T2 construct: expressed in transfected cells; host or cells: HEK-293
Excerpt: as §1
The FLIPR Calcium 3 Assay Kit is designed to work with many cell types, both adherent and non-adherent. Optimal cell conditions for the FLIPR Calcium 3 Assay Kit require the creation of a confluent cell monolayer before placing the plates in FLIPR or FlexStation. In general, we start with 50,000 mGluR5 HEK-293 cells/well for a 96-well plate. For adherent cells, seeding cells overnight with a plating volume of 100 μL/well worked for 96-well plates.
Remove cell plates from the incubator. Remove the supernatant medium. Add 180 ul of Loading Buffer to each well (for 96-well plates). HBSS buffer component B) pipette 100 mL of 10× Hank's Balanced Salt Solution and 20 mL of 1M Hepes buffer
Incubate cell plates for 1 hour at 37° C. and then keep the plates at room temperature until used.
After incubation, transfer the plates directly to FLIPR and begin the calcium assay as described in the FLIPR system manual. For a signal test, a starting average count of ˜10,000 is recommended. Recommended experimental setup parameters are as follows. Faster addition speeds can lead to better mixing of compounds and lower signal variance across the plate.
Test or reference compound is added to the 96-well plate (manually). […] Relative Fluorescence Units (RFUs) are recorded over a given time period (stated above) depending on the platform system used.
For antagonists, results are expressed as % inhibition of glutamate stimulated Calcium levels. IC50 values were calculated by Prism GraphPad using a 4-parameter logistic equation. IC50 values are calculated using GraphPad by fitting to a 1 site-model.

T2 sequence (P31424 21-1203): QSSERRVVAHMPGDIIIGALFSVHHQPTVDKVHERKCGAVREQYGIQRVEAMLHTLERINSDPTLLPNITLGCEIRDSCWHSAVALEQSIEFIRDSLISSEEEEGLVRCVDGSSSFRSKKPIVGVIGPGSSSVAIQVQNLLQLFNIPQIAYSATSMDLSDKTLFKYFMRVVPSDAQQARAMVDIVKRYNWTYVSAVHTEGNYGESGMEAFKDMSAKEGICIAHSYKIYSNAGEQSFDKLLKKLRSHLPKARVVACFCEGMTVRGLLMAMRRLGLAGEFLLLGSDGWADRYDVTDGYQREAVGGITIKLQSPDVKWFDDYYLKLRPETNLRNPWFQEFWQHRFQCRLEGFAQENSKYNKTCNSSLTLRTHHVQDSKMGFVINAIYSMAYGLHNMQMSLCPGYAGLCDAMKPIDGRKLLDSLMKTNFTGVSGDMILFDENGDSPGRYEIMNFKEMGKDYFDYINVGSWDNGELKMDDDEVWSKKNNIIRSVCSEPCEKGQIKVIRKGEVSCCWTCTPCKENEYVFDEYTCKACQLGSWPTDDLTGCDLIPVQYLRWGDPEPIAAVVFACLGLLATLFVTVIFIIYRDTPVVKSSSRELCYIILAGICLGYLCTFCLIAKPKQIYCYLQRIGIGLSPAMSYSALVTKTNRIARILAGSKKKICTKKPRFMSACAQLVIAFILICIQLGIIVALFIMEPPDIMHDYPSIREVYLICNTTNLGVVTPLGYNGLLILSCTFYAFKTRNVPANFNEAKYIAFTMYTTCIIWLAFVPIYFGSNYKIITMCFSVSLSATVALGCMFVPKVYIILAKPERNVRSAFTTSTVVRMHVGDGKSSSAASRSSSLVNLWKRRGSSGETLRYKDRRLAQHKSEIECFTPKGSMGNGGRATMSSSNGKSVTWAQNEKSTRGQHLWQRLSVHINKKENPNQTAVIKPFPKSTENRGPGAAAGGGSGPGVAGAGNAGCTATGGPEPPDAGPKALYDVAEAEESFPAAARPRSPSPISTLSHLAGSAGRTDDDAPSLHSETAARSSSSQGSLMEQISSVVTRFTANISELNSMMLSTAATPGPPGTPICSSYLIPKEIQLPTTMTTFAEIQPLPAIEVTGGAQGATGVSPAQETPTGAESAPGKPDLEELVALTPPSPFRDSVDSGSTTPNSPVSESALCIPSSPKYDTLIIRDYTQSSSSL
T1 sequence (P31424 21-1203): as above

Structure (SMILES)	Ki [1]	IC50 [2]
COc1ccc(C(=O)N2CCc3cc(OC)c(OC)cc3C2)cc1C#Cc1ccccn1 [Example 20, 6,7-dimethoxy-2-[4-methoxy-3-(pyridin-2-ylethynyl)benzoyl]-1,2,3,4-tetrahydroisoquinoline]	0.036 µM	0.049 µM
COc1ccc(C(=O)N2CCc3cccc(OC)c3C2)cc1C#Cc1ccccn1 [Example 21, 8-methoxy-2-[4-methoxy-3-(pyridin-2-ylethynyl)benzoyl]-1,2,3,4-tetrahydroisoquinoline]	0.003 µM	0.034 µM
COc1ccc(C(=O)N2CCc3ccccc3C2c2cccs2)cc1C#Cc1ccccn1 (stereo not drawn) [Example 22, 2-[4-methoxy-3-(pyridin-2-ylethynyl)benzoyl]-1-(2-thienyl)-1,2,3,4-tetrahydroisoquinoline]	0.022 µM	0.22 µM
COc1ccc(C(=O)N2Cc3ccccc3C(S(=O)(=O)N3CCS(=O)(=O)CC3)C2)cc1C#Cc1ccccn1 (stereo not drawn) [Example 25, 4-[(1,1-dioxidothiomorpholin-4-yl)sulfonyl]-2-[4-methoxy-3-(pyridin-2-ylethynyl)benzoyl]-1,2,3,4-tetrahydroisoquinoline]	0.07 µM	0.097 µM
COc1ccc(C(=O)N2CCc3ccccc3C2c2ccccc2)cc1C#Cc1ccccn1 (stereo not drawn) [Example 26, 2-[4-methoxy-3-(pyridin-2-ylethynyl)benzoyl]-1-phenyl-1,2,3,4-tetrahydroisoquinoline]	0.057 µM	0.169 µM
COc1ccc(C(=O)N2CCc3ccccc3C2c2ccco2)cc1C#Cc1ccccn1 (stereo not drawn) [Example 27, 1-(2-furyl)-2-[4-methoxy-3-(pyridin-2-ylethynyl)benzoyl]-1,2,3,4-tetrahydroisoquinoline]	0.021 µM	0.04 µM
COc1ccc(C(=O)N2Cc3ccccc3C(CNc3ccccc3)C2)cc1C#Cc1ccccn1 (stereo not drawn) [Example 29, N-({2-[4-methoxy-3-(pyridin-2-ylethynyl)benzoyl]-1,2,3,4-tetrahydroisoquinolin-4-yl}methyl)aniline]	0.068 µM	0.447 µM
COc1ccc2c(c1)CCN(C(=O)c1ccc(OC)c(C#Cc3ccccn3)c1)C2 [Example 31, 6-methoxy-2-[4-methoxy-3-(pyridin-2-ylethynyl)benzoyl]-1,2,3,4-tetrahydroisoquinoline]	0.008 µM	0.061 µM
COc1ccc(C(=O)N2Cc3ccc(C)cc3C2)cc1C#Cc1ccccn1 [Example 32, 2-[4-methoxy-3-(pyridin-2-ylethynyl)benzoyl]-5-methylisoindoline]	0.003 µM	0.042 µM
COc1ccc(C(=O)N2Cc3ccc(Br)cc3C2)cc1C#Cc1ccccn1 [Example 33, 5-bromo-2-[4-methoxy-3-(pyridin-2-ylethynyl)benzoyl]isoindoline]	0.002 µM	0.173 µM
COc1ccc(C(=O)N2Cc3cc(Cl)c(Cl)cc3C2)cc1C#Cc1ccccn1 [Example 34, 5,6-dichloro-2-[4-methoxy-3-(pyridin-2-ylethynyl)benzoyl]isoindoline]	0.017 µM	1.45 µM

Other lines, results leading:

Ki [1]	IC50 [2]	Structure (SMILES)
0.023 µM	0.061 µM	COc1ccc(C(=O)N2Cc3ccc([N+](=O)[O-])cc3C2)cc1C#Cc1ccccn1 [Example 35, 2-[4-methoxy-3-(pyridin-2-ylethynyl)benzoyl]-5-nitroisoindoline]
0.006 µM	0.025 µM	COc1ccc(C(=O)N2Cc3cccc(F)c3C2)cc1C#Cc1ccccn1 [Example 36, 4-fluoro-2-[4-methoxy-3-(pyridin-2-ylethynyl)benzoyl]isoindoline]
0.006 µM	0.04 µM	COc1ccc(C(=O)N2Cc3ccc(F)cc3C2)cc1C#Cc1ccccn1 [Example 37, 5-fluoro-2-[4-methoxy-3-(pyridin-2-ylethynyl)benzoyl]isoindoline]
0.002 µM	0.051 µM	COc1ccc(C(=O)N2Cc3cccc(Cl)c3C2)cc1C#Cc1ccccn1 [Example 38, 4-chloro-2-[4-methoxy-3-(pyridin-2-ylethynyl)benzoyl]isoindoline]
0.023 µM	0.026 µM	COc1ccc(C(=O)N2CCc3ncccc3C2)cc1C#Cc1ccccn1 [Example 39, 6-[4-methoxy-3-(pyridin-2-ylethynyl)benzoyl]-5,6,7,8-tetrahydro-1,6-naphthyridine]
0.022 µM	0.021 µM	COc1ccc(C(=O)N2CCc3ncc(C)cc3C2)cc1C#Cc1ccccn1 [Example 40, 6-[4-methoxy-3-(pyridin-2-ylethynyl)benzoyl]-3-methyl-5,6,7,8-tetrahydro-1,6-naphthyridine]
0.026 µM	0.012 µM	COc1ccc(C(=O)N2Cc3cnc(C)cc3C2)cc1C#Cc1ccccn1 [Example 41, 2-[4-methoxy-3-(pyridin-2-ylethynyl)benzoyl]-6-methyl-2,3-dihydro-1H-pyrrolo[3,4-c]pyridine]
0.02 µM	0.028 µM	COc1ccc(C(=O)N2Cc3cnc(C)c(C)c3C2)cc1C#Cc1ccccn1 [Example 42, 2-[4-methoxy-3-(pyridin-2-ylethynyl)benzoyl]-6,7-dimethyl-2,3-dihydro-1H-pyrrolo[3,4-c]pyridine]
0.012 µM	0.017 µM	COc1ccc(C(=O)N2Cc3cnc(C)c(Cl)c3C2)cc1C#Cc1ccccn1 [Example 43, 7-chloro-2-[4-methoxy-3-(pyridin-2-ylethynyl)benzoyl]-6-methyl-2,3-dihydro-1H-pyrrolo[3,4-c]pyridine]
0.02 µM	0.014 µM	COc1ccc(C(=O)N2Cc3cnc(C)c(N)c3C2)cc1C#Cc1ccccn1 [Example 44, 2-[4-methoxy-3-(pyridin-2-ylethynyl)benzoyl]-6-methyl-2,3-dihydro-1H-pyrrolo[3,4-c]pyridin-7-amine]
0.031 µM	0.035 µM	COc1ccc(C(=O)N2Cc3cnc(C)c(OC)c3C2)cc1C#Cc1ccccn1 [Example 45, 7-methoxy-2-[4-methoxy-3-(pyridin-2-ylethynyl)benzoyl]-6-methyl-2,3-dihydro-1H-pyrrolo[3,4-c]pyridine]
0.031 µM	0.018 µM	COc1ccc(C(=O)N2Cc3ccncc3C2)cc1C#Cc1ccccn1 [Example 46, 2-[4-methoxy-3-(pyridin-2-ylethynyl)benzoyl]-2,3-dihydro-1H-pyrrolo[3,4-c]pyridine]
0.03 µM	0.033 µM	COc1ccc(C(=O)N2CCc3oc(C)nc3C2)cc1C#Cc1ccccn1 [Example 47, 5-{[4-methoxy-3-(pyridin-2-ylethynyl)phenyl]carbonyl}-2-methyl-4,5,6,7-tetrahydro[1,3]oxazolo[4,5-c]pyridine]
0.023 µM	0.042 µM	COc1ccc(C(=O)N2CCc3nc(C)sc3C2)cc1C#Cc1ccccn1 [Example 48, 5-{[4-methoxy-3-(pyridin-2-ylethynyl)phenyl]carbonyl}-2-methyl-4,5,6,7-tetrahydro[1,3]thiazolo[5,4-c]pyridine]
0.017 µM	0.017 µM	COc1ccc(C(=O)N2CCc3cccnc3C2)cc1C#Cc1ccccn1 [Example 50, 7-{[4-methoxy-3-(pyridin-2-ylethynyl)phenyl]carbonyl}-5,6,7,8-tetrahydro-1,7-naphthyridine]
0.013 µM	0.03 µM	COc1ccc(C(=O)N2CCc3ncc(Cl)cc3C2)cc1C#Cc1ccccn1 [Example 51, 3-chloro-6-{[4-methoxy-3-(pyridin-2-ylethynyl)phenyl]carbonyl}-5,6,7,8-tetrahydro-1,6-naphthyridine]
